Assay results as given in ChEMBL document CHEMBL1145319, “Modeling and synthesis of non-cyclic derivatives of GPI-1046 as potential FKBP ligands with neurotrophic properties” (Bioorg Med Chem Lett, 2006).

What was measured:
[1] = target: T1, Peptidyl-prolyl cis-trans isomerase FKBP4 (Homo sapiens) (UniProt Q02790); test: Neurotrophic activity in chick dorsal root ganglion at 100 pM in presence of NGF after 48 hrs relative to control; assay type: functional, tissue-based; details: Gallus gallus, target entry is the homologue from another species
T1 sequence (whole entry): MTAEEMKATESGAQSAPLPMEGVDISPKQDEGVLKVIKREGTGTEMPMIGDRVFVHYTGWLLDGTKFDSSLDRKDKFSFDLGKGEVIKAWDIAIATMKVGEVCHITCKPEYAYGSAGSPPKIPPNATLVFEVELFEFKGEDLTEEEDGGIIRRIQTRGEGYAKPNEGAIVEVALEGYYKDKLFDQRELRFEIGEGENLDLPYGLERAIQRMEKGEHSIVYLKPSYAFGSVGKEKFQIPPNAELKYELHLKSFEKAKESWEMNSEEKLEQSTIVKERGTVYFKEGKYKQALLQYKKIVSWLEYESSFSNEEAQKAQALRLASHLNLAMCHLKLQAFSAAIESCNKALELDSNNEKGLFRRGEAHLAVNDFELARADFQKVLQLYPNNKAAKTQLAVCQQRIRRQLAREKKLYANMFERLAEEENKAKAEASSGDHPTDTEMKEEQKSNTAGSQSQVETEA

[2] = target: T1, Peptidyl-prolyl cis-trans isomerase FKBP4 (Homo sapiens); test: Neurotrophic activity in chick dorsal root ganglion at 1 pM in presence of NGF after 48 hrs relative to control; assay type: functional, tissue-based; details: Gallus gallus, target entry is the homologue from another species

| Structure (SMILES) | Activity [1] [%] | Activity [2] [%] |
| --- | --- | --- |
| CC(C)C[C@H](NC(=O)C(=O)C(C)(C)C)C(=O)OCCCOc1ccccc1 | 93 | 108 |
| CCC(C)(C)C(=O)C(=O)N1CCC[C@H]1C(=O)OCCCc1cccnc1 | 120 | – |
| CC(C)C[C@H](NC(=O)C(=O)C(C)(C)C)C(=O)OCCCc1ccccc1 | 92 | 73 |
| CC(C)[C@H](NC(=O)C(=O)C(C)(C)C)C(=O)OCCCC1CCCCC1 | 45 | 136 |
| CC(C)[C@H](NC(=O)C(=O)C(C)(C)C)C(=O)OCCCOc1ccccc1 | 93 | 85 |
| CC(C)C[C@H](NC(=O)C(=O)C(C)(C)C)C(=O)OCCCC1CCCCC1 | 101 | 123 |

Continued, values first:

| Activity [1] [%] | Activity [2] [%] | Structure (SMILES) |
| --- | --- | --- |
| 207 | 123 | CCC(C)(C)C(=O)C(=O)N[C@H](C(=O)OCCc1ccccc1C(F)(F)F)C(C)C |
| 136 | 115 | CC(C)[C@H](NC(=O)C(=O)C(C)(C)C)C(=O)OCCCc1cccnc1 |
| 78 | 65 | CC(C)[C@H](NC(=O)C(=O)C(C)(C)C)C(=O)OCCCc1ccccc1 |
| 65 | 129 | CC(C)C[C@H](NC(=O)C(=O)C(C)(C)C)C(=O)OCCCc1cccnc1 |
| 120 | 100 | CCC(C)(C)C(=O)C(=O)N[C@H](C(=O)OCCCc1cccnc1)C(C)C |
| 117 | 39 | CCC(C)(C)C(=O)C(=O)N[C@H](C(=O)OCCCc1ccccc1)C(C)C |
